The conditions of data set [1]: in vivo; cited from earlier work.
In data set [2] the test system is Mycobacterium tuberculosis H37Rv. Nature of the data set: Activity test for Mycobacterium tuberculosis (MIC, H37Rv). Format: cell-based. Particulars: for MIC: Mycobacterium tuberculosis H37Rv, liquid medium, 37° C., read-out: Minimum inhibitory concentration against H37Rv; for anti Mycobacterium tuberculosis activity (MIC against H37Rv), times of that of PA-824: relative to PA-824; for anti Mycobacterium tuberculosis activity (MIC against H37Rv), times of that of ethambutol: relative to ethambutol. The procedure:
The tested strain H37Rv was transferred to liquid medium and cultured for 2 weeks at 37° C.; a small amount of the cultured bacterial solution was pipetted and placed in 4 mL of liquid medium; 10-20 sterile glass beads with a diameter of 2-3 mm were added; the mixture was shaken for 20-30 s and left to sediment for 10-20 min; the supernatant of the bacterial suspension was pipetted and adjusted to a turbidity of 1 MCF (equivalent to 1×10^7 CFU/mL) with the liquid medium for use. Each drug was dissolved to 1 mg/mL with an appropriate amount of DMSO and filtered with a 0.22 μm filter. Then, the solution was diluted to a desired experimental concentration with the liquid medium. The final concentrations of the tested drugs were set as follows: 0.001 μg/mL, 0.002 μg/mL, 0.0039 μg/mL, 0.0078 μg/mL, […], 0.03125 μg/mL, 0.0625 μg/mL, 0.125 μg/mL, 0.25 μg/mL, 0.5 μg/mL and 1 μg/mL, a total of 11 concentration gradients. 100 μL of each of the above-mentioned drug solutions was added to a 96-well microwell plate, then 100 μL bacterial solution with a concentration of 1 mg/mL was added to allow the drug concentration to reach the final set concentration, and cultured at 37° C. Three groups in parallel were set for each drug dilution with inoculation amounts of 100%, 10% and 1%, respectively, while no drug was added to the control group.

Data set [3] in a line: physchem. Type of data set: physicochemical. The following applies: for solubility at 3 days: pH 1.2, simulated gastric fluid, thermodynamic from solid; for Solubility: 3 days, pH 1.2. The procedure: 3-5 mg of compound to be tested was added to 0.5 mL of aqueous HCl solution (pH=1.2) and the mixture was shaken for three days on a shaker; the sample was centrifuged for 5 min at 10,000 rpm in a centrifuge; a volumetric flask (50 mL) was loaded with 2 mL of supernatant and water was added to a volume at the graduation mark to prepare a sample solution; and 2.6 mg of sample was precisely weighed into a volumetric flask (50 mL), an appropriate amount of methanol was added to dissolve the sample, and water was added to a volume at the graduation mark and shaken well to give a control sample solution. 20 μL of sample solution and control sample solution were each injected, and tested by liquid chromatography. The solubility was calculated as follows:
Solubility (mg/mL)=C (control)*25*A (sample)/A (control)
C (control): concentration of the control sample
A (sample): peak area of the liquid chromatogram of the sample solution
A (control): peak area of the liquid chromatogram of the control sample solution

A short description of data set [4]: Drug metabolism test (pharmacokinetics, oral, mice). Particulars: 10 mg/kg; for AUC(0-inf) / AUC(0-t) / Cmax / MRT / Tmax / half-life: male, ICR, mouse, po, orally (intragastric), plasma. Type of data set: in vivo, ICR mice. The procedure:
18 healthy male ICR mice with a body weight of 18-22 g were administered drugs by intragastric administration, with an administration dose of 10 mg/kg and an administration volume of 10 mL/kg, respectively. These mice were fasted for 12 h before the test and had free access to drinking water. These mice were fed 2 h after administration uniformly. 0.3 mL of blood was taken from the postocular venous plexus of a mouse at the set time points, placed in a heparinized test tube and centrifuged for 10 min at 3000 rpm; and plasma was separated and frozen in a refrigerator at −20° C. When measured, the sample was treated through the method for treating the plasma sample, and the drug concentration in plasma was determined by LC-MS/MS and the pharmacokinetic parameters of the drug were calculated.

In data set [5] the target is T1, hERG potassium channel (Homo sapiens, UniProt Q12809).
T1 construct: host or cells: HEK-293
In words: Inhibitory effect on hERG potassium ion channel (whole cell patch clamp, HEK-293 cells). Type of data set: cell-based. Particulars: hERG potassium current, room temperature, read-out: IC50 (inhibition on hERG). The procedure:
hERG potassium channel currents were recorded with the whole cell patch clamp technique at room temperature in HEK-293 cells (Creacell™, France) expressing hERG stably. A glass microelectrode with a tip resistance of about 1-4 MΩ was connected to the Axon 200A patch clamp amplifier. Clamp voltage and data record were controlled by a computer via the Axon DigiData 1322A A/D converter with the clampex 9.2 software; the cells were clamped at −80 mV; and the step voltage for inducing the hERG potassium current (IhERG) was changed from −80 mV to +20 mV by providing a 2 s depolarization voltage, repolarized to −40 mV and returned to −80 mV after 4 s. This voltage step was given respectively before and after administration to induce the hERG potassium current.
Data analysis and processing were performed with the PatchMaster, GraphPad Prism 5 and Excel softwares. The degree of inhibition of different compound concentrations on the hERG potassium current (hERG tail current peak induced at −50 mV) was calculated using the following formula:
Fractional block %=[1−(I/Io)]×100%
in the formula, Fractional block represents the percent inhibition of a compound on the hERG potassium current, and I and Io represent the magnitudes of the hERG potassium current […], respectively.
The IC50 of a compound was calculated using the following equation by fitting: […]
in the equation, I and Io represent the magnitudes of the hERG potassium current […], respectively; [C] is the compound concentration, and n is the Hill coefficient.

In brackets after ≈: the same amount, converted by molar mass. Counter-ions that a name gives are not always drawn. Some results are limits rather than exact numbers.

T1 sequence (Q12809 whole entry): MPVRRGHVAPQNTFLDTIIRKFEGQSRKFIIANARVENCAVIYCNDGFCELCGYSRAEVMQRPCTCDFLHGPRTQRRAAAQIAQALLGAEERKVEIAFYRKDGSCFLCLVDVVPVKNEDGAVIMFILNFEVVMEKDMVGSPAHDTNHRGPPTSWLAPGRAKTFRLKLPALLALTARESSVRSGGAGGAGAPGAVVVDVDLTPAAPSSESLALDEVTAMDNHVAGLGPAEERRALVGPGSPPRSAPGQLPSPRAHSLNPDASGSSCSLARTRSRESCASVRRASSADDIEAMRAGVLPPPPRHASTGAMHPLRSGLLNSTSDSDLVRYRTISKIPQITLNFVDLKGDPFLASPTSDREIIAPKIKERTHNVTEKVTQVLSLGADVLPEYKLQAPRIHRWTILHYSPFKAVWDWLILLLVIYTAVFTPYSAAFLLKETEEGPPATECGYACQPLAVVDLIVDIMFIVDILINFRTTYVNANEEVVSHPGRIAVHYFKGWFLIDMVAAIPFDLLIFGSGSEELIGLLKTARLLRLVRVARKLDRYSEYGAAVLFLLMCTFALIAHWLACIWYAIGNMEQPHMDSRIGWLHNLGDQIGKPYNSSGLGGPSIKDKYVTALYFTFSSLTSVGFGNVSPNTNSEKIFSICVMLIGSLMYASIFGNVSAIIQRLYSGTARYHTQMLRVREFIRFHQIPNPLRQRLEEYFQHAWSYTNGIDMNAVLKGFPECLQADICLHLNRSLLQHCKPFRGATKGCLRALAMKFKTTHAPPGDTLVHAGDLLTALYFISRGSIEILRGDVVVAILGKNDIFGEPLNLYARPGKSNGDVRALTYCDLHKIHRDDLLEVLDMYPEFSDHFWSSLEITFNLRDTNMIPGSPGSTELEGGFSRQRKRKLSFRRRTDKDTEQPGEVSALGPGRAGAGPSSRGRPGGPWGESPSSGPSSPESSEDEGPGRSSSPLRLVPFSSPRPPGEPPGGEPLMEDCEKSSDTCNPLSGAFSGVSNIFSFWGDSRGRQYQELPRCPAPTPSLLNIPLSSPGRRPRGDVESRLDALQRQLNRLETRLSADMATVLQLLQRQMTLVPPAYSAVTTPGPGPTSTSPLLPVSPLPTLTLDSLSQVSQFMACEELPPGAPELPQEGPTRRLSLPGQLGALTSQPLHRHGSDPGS

In general, melting point refers to the temperature, or range, at which the solid turns liquid. In turn, `CN(Cc1cnc(N2CCN(c3ccc(OC(F)(F)F)cc3)CC2)nc1)[C@@H]1COc2nc([N+](=O)[O-])cn2C1.O=C(O)/C=C/C(=O)O` had a melting point of 143 to 145 °C.

What is called solubility is how much of the substance goes into solution per volume. A high value points to a readily soluble substance. Turning to `O=[N+]([O-])c1cn2c(n1)OC[C@@H](OCc1ccc(OC(F)(F)F)cc1)C2` [PA-824, reference compound], the “oral bioavailability (in words, background)” value in data set [1] was “low”. In addition, the MIC in data set [2] turned out to be 62.5 ng/mL (≈ 0.174 µM). In data set [3], the solubility at 3 days is 17 µg/mL (≈ 47.3 µM).

In the case of `C[C@]1(COc2ccc(N3CCC(Oc4ccc(OC(F)(F)F)cc4)CC3)cc2)Cn2cc([N+](=O)[O-])nc2O1` [OPC-67683], in data set [1], the “oral bioavailability (in words, background)” value is reported as “very low”.

What is called AUC(0-inf) is total exposure, with the tail of the curve extrapolated. Low readings indicate low exposure, high ones high exposure. A word on the AUC(0-t): it is exposure summed from dosing to a finite time, without extrapolation to infinity. High values mean high exposure, low ones low exposure. For orientation: Cmax means the peak of the concentration-time curve. A word on the MRT: it is the average time that molecules of a dose stay in the body. By Tmax is commonly meant the time at which the peak concentration occurs. The half-life is how long it takes for the measured level to halve. Read a low half-life as rapid decline. Usually IC50 stands for the concentration that inhibits the measured activity by half. As a reminder, the Solubility is the dissolved amount per volume that the medium holds. Low values mean a poorly soluble substance, high ones a readily soluble substance. In data set [4], `CC1CN(c2ncc(CN[C@@H]3COc4nc([N+](=O)[O-])cn4C3)cn2)CCN1c1ccc(OC(F)(F)F)cc1` (stereo partly shown) [Compound 19] had an AUC(0-inf) of 16800 ng·h/mL, an exposure AUC(0-t) of 16300 ng·h/mL, a Cmax of 1780 ng/mL and an MRT of 5.02 h. In addition, in data set [4], the Tmax came to 1.98 h and the half-life is 3.17 h. Also, in data set [2], the “anti Mycobacterium tuberculosis activity (MIC against H37Rv), times of that of PA-824” value worked out at 8 times; the “anti Mycobacterium tuberculosis activity (MIC against H37Rv), times of that of ethambutol” value was found to be 64 times; the MIC stood at 7.8 ng/mL (≈ 0.0146 µM). The IC50 in data set [5] is 38.3 µM. In data set [3], this compound yielded a Solubility of 1321.8 µg/mL (≈ 2470 µM) and a solubility at 3 days of over 1000 µg/mL.

In data set [4], `O=[N+]([O-])c1cn2c(n1)OC[C@@H](NCc1cnc(N3CCN(c4ccc(OC(F)(F)F)cc4)CC3)nc1)C2` [Compound 18] returned an AUC(0-inf) of 16700 ng·h/mL, an AUC(0-t) of 16000 ng·h/mL, a maximum concentration (Cmax) of 1470 ng/mL and an MRT of 7.11 h. In data set [4], the Tmax was 2 h and the half-life is 5.29 h. In data set [2], the “anti Mycobacterium tuberculosis activity (MIC against H37Rv), times of that of PA-824” value is listed as 8 times; the “anti Mycobacterium tuberculosis activity (MIC against H37Rv), times of that of ethambutol” value is listed as 64 times; the MIC came out at 7.8 ng/mL (≈ 0.015 µM). In addition, the IC50 in data set [5] was 41.1 µM. In data set [3], this compound returned a Solubility of 1532.1 µg/mL (≈ 2940 µM) and a solubility at 3 days of over 1000 µg/mL.

Take `Cc1nc(N2CCN(c3ccc(OC(F)(F)F)cc3)CC2)ncc1CN[C@@H]1COc2nc([N+](=O)[O-])cn2C1` (as salt: methanesulfonate) [Compound 49, (S)-N-((4-methyl-2-(4-(4-(trifluoromethoxy)phenyl)piperazin-1-yl)pyrimidin-5-yl)methyl)-2-nitro-6,7-dihydro-5H-imidazo[2,1-b][1,3]oxazin-6-amine methanesulfonate]: the melting point lay within 175 to 177 °C.

For `O=[N+]([O-])c1cn2c(n1)OC[C@@H](NCc1cnc(N3CCN(c4ccc(C(F)(F)F)cc4)CC3)nc1)C2` [Compound 31, (S)-2-nitro-N-((2-(4-(4-(trifluoromethyl)phenyl)piperazin-1-yl)pyrimidin-5-yl)methyl)-6,7-dihydro-5H-imidazo[2,1-b][1,3]oxazin-6-amine], in data set [4], the AUC(0-inf) came to 22500 ng·h/mL, the AUC(0-t) was 22400 ng·h/mL, the peak level (Cmax) was 2140 ng/mL and the MRT is 4.18 h. Besides, in data set [4], the Tmax turned out to be 1.97 h and the half-life is 3.05 h. For the same compound, in data set [4] (orally, judgement on Table 6), the “pharmacokinetic properties (in words)” value is listed as “excellent”. Further, in data set [2], the “anti Mycobacterium tuberculosis activity (MIC against H37Rv), times of that of PA-824” value is listed as 8 times; the “anti Mycobacterium tuberculosis activity (MIC against H37Rv), times of that of ethambutol” value came to 64 times; the MIC is 7.8 ng/mL (≈ 0.0155 µM). Moreover, the IC50 in data set [5] amounted to 39.5 µM. Also, in data set [3], the Solubility was determined as 1354.8 µg/mL (≈ 2690 µM) and the solubility at 3 days is over 1000 µg/mL.
